Where a name gives a salt, the structure may show the parent alone.
molecular target: T1, S1P5 receptors (Homo sapiens, UniProt Q9H228); experiment: [35S]-GTPγS binding assay with CHO-S1P5 receptor membranes; assay type: biochemical; details: membranes of CHO cells expressing recombinant S1P5 receptors; measure of S1P5 agonism
T1 construct: expressed in transfected cells; host or cells: CHO cells (membranes)
Method: CHO cells expressing recombinant S1P5 receptors were cultured in 500 cm^2 culture trays and, once confluent, rinsed and detached with cell-lifting buffer (10 mM HEPES, 154 mM NaCl, 6.85 mM EDTA, pH 7.4). Cells were then pelleted by centrifugation, resuspended, and homogenized in membrane preparation buffer (10 mM HEPES and 10 mM EDTA, pH 7.4) using a Polytron PT 1200E homogenizer (Kinematica, Luzern, Switzerland). Cellular proteins were pelleted by centrifugation at 48,000×g at 4° C. for 30 minutes. The resulting supernatant was discarded, and the pellet was re-suspended again in membrane preparation buffer, homogenized for a second time, and then centrifuged again as described above. The final cellular protein pellet was suspended in ice cold resuspension buffer (10 mM HEPES and 0.1 mM EDTA, pH 7.4), divided into aliquots, and stored at −80° C. until use.
Functional binding assays for [^35]-GTPγS were performed in 96-well non-binding surface plates with a final volume of 200 μL. The test compounds were serially diluted in DMSO and added to assay plates using a Tecan D300E digital printer with a total volume of […]. The control sphingosine-1-phosphate (SiP) was prepared separately by preparing a 400 μM stock solution from a 100 nmol pellet of SiP in 10 mM Na2CO3 with 2% […]. The serial dilution of SiP was done using complete assay buffer (20 mM HEPES, 10 mM MgCl2, 100 mM NaCl, 1 mM EDTA, 0.1% fatty acid free bovine serum albumin (BSA), and 30 μg/mL saponin, pH 7.4) and transferred to wells already containing 0.4 μL DMSO. All the wells were then loaded to a total volume of 40 μL of complete assay buffer, except the non-specific binding (NSB) wells. For NSB wells, 40 μL/well of 50 μM GTPγS (Sigma Aldrich, cat #G8634, St. Louis, MO) was added to wells containing 0.4 μL of DMSO. The assay was started by the addition of 120 μL/well of CHO-S1P receptor membrane solution containing 40 μg/mL of membrane protein, 16.67 μM guanosine diphosphate (GDP; Sigma Aldrich, cat #G7127, St. Louis, MO), and 2.5 mg/mL of WGA PVT SPA beads in complete buffer. Assay plates were then sealed and incubated at room temperature with gentle agitation for 30 minutes. Next, 40 μL/well of 1 nM of [^35]-GTPγS (PerkinElmer, cat #NEG030X250UC, Waltham, MA) in basic assay buffer (20 mM HEPES, 10 mM MgCl2, 100 mM NaCl, and 1 mM EDTA, pH7.4) was added to the assay plates to yield a final concentration of 200 pM and the plates were further incubated for 40 minutes at room temperature with gentle agitation. The assay was terminated by centrifugation of the plates at 1000 rpm for 3 minutes using an Eppendorf 5810R centrifuge (Eppendorf, Hamburg, Germany) and G protein bound radioactivity was quantitated using a MicroBeta2 microplate scintillation counter (PerkinElmer, Waltham, MA). As G protein bound radioactivity directly correlates to receptor activation and coupling to the G protein, this assay is a measure of S1P5 agonism.

T1 sequence (Q9H228 whole entry): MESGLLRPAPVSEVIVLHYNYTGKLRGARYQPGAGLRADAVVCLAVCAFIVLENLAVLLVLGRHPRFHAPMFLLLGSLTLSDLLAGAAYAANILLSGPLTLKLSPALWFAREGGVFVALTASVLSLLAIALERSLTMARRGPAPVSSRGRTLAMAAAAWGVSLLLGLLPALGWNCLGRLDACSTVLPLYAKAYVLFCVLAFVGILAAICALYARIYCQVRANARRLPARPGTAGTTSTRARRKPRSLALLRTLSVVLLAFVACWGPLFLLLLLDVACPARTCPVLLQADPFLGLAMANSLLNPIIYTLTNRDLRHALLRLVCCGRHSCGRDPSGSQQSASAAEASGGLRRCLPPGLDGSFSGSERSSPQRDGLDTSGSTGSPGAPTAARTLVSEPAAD

Row | SMILES | EC50
1 | O=C(O)C1CCN(Cc2ccc(C3CN(c4cccc(F)c4)C3)cc2)CC1 [Compound 41, 1-(4-(1-(3-fluorophenyl)azetidin-3-yl)benzyl)piperidine-4-carboxylic acid] | 1000 to 10000 nM
2 | Cc1cc(C2CN(c3cccc(F)c3)C2)cc(C)c1CN1CCC(C(=O)O)CC1 [Compound 47, 1-(4-(1-(3-fluorophenyl)azetidin-3-yl)-2,6-dimethylbenzyl)piperidine-4-carboxylic acid] | 100 to 1000 nM
3 | Cc1cc(C2CN(c3cccc4ccccc34)C2)cc(C)c1CN1CCC(C(=O)O)CC1 [Compound 75, 1-(2,6-dimethyl-4-(1-(naphthalen-1-yl)azetidin-3-yl)benzyl)piperidine-4-carboxylic acid] | 100 to 1000 nM
4 | CC1(C(=O)O)CCN(Cc2ccc(C3CN(c4c(Cl)cccc4Cl)C3)cc2)CC1 [Compound 89, 1-(4-(1-(2,6-dichlorophenyl)azetidin-3-yl)benzyl)-4-methylpiperidine-4-carboxylic acid, formic acid salt] | 10 to 100 nM
5 | O=C(O)C1CCN(Cc2ccc(C3CN(c4c(Cl)cccc4Cl)C3)c(F)c2)CC1 [Compound 22, 1-(4-(1-(2,6-dichlorophenyl)azetidin-3-yl)-3-fluorobenzyl)piperidine-4-carboxylic acid] | ≤ 10 nM
6 | Cc1cc(C2CN(c3ccccc3C3CC3)C2)cc(C)c1CN1CCC(C(=O)O)CC1 [Compound 70, 1-(4-(1-(2-cyclopropylphenyl)azetidin-3-yl)-2,6-dimethylbenzyl)piperidine-4-carboxylic acid] | 10 to 100 nM
7 | O=C(O)C1CCN(Cc2ccc(C3CN(c4c(Cl)cccc4Cl)C3)c3ccccc23)CC1 [Compound 54, 1-((4-(1-(2,6-dichlorophenyl)azetidin-3-yl)naphthalen-1-yl)methyl)-piperidine-4-carboxylic acid] | ≤ 10 nM
8 | Cc1cc(N2CC(c3c(Cl)cccc3Cl)C2)cc(C)c1CN1CCC(C(=O)O)CC1 [Compound 28, 1-(4-(3-(2,6-dichlorophenyl)azetidin-1-yl)-2,6-dimethylbenzyl)piperidine-4-carboxylic acid] | ≤ 10 nM
9 | Cc1cc(C2CN(c3c(Cl)cccc3Cl)C2)cc(F)c1CN1CCC(C(=O)O)CC1 [Compound 50, 1-(4-(1-(2,6-dichlorophenyl)azetidin-3-yl)-2-fluoro-6-methylbenzyl)-piperidine-4-carboxylic acid] | ≤ 10 nM
10 | Cc1cc(C2CN(c3c(Cl)cccc3Cl)C2)cc(C)c1CN1CCC(C(=O)O)CC1 [Compound 15, 1-(4-(1-(2,6-dichlorophenyl)azetidin-3-yl)-2,6-dimethylbenzyl)piperidine-4-carboxylic acid] | ≤ 10 nM
11 | Cc1cc(C2CN(c3c(Cl)cccc3Cl)C2)cc(C)c1CN1CCC(C)(C(=O)O)CC1 [Compound 90, 1-(4-(1-(2,6-dichlorophenyl)azetidin-3-yl)-2,6-dimethylbenzyl)-4-methyl-piperidine-4-carboxylic acid, formic acid salt] | ≤ 10 nM
12 | Cc1cc(C2CN(c3c(C)cccc3C(F)(F)F)C2)cc(C)c1CN1CCC(C(=O)O)CC1 [Compound 73, 1-(2,6-dimethyl-4-(1-(2-methyl-6-(trifluoromethyl)phenyl)azetidin-3-yl)-benzyl)piperidine-4-carboxylic acid] | ≤ 10 nM
13 | Cc1cc(C2CN(c3c(C)cccc3C3CC3)C2)cc(C)c1CN1CCC(C(=O)O)CC1 [Compound 71, 1-(4-(1-(2-cyclopropyl-6-methylphenyl)azetidin-3-yl)-2,6-dimethylbenzyl)-piperidine-4-carboxylic acid] | ≤ 10 nM
14 | O=C(O)C1CCN(Cc2ccc(C3CN(c4c(F)cccc4F)C3)cc2)CC1 [Compound 14, 1-(4-(1-(2,6-difluorophenyl)azetidin-3-yl)benzyl)piperidine-4-carboxylic acid] | 100 to 1000 nM
15 | Cc1cc(C2CN(c3c(Cl)cccc3Cl)C2)cc(Cl)c1CN1CCC(C(=O)O)CC1 [Compound 51, 1-(2-chloro-4-(1-(2,6-dichlorophenyl)azetidin-3-yl)-6-methylbenzyl)-piperidine-4-carboxylic acid] | ≤ 10 nM
16 | O=C(O)C1CCN(C2CCc3cc(C4CN(c5c(Cl)cccc5Cl)C4)ccc32)C1 (stereo not shown) [Compound 7, 1-(5-(1-(2,6-dichlorophenyl)azetidin-3-yl)-2,3-dihydro-1H-inden-1-yl)pyrrolidine-3-carboxylic acid] | ≤ 10 nM
17 | Cc1cc(C2CN(c3c(Cl)cccc3Cl)C2)c(C)nc1CN1CCC(C(=O)O)CC1 [Compound 82, 1-((5-(1-(2,6-dichlorophenyl)azetidin-3-yl)-3,6-dimethylpyridin-2-yl)-methyl)piperidine-4-carboxylic acid] | 100 to 1000 nM
18 | Cc1cc(C2CN(c3c(Cl)cccc3Cl)C2)cc(C)c1CN1CCC(C(=O)O)CC1(C)C (stereo not shown) [Compound 65, 1-(4-(1-(2,6-dichlorophenyl)azetidin-3-yl)-2,6-dimethylbenzyl)-2,2-dimethylpiperidine-4-carboxylic acid] | 10 to 100 nM
19 | Cc1cc(C2CN(c3ccc(C4CC4)c(Cl)c3)C2)cc(C)c1CN1CCC(C(=O)O)CC1 [Compound 49, 1-(4-(1-(3-chloro-4-cyclopropylphenyl)azetidin-3-yl)-2,6-dimethylbenzyl)-piperidine-4-carboxylic acid] | 100 to 1000 nM
20 | Cc1cc(C2CN(c3ccccc3F)C2)cc(C)c1CN1CCC(C(=O)O)CC1 [Compound 46, 1-(4-(1-(2-fluorophenyl)azetidin-3-yl)-2,6-dimethylbenzyl)piperidine-4-carboxylic acid] | 10 to 100 nM
21 | Cc1cc(C2CN(c3c(Cl)cccc3Cl)C2)cnc1CN1CCC(C(=O)O)CC1 [Compound 76, 1-((5-(1-(2,6-dichlorophenyl)azetidin-3-yl)-3-methylpyridin-2-yl)methyl)-piperidine-4-carboxylic acid] | 10 to 100 nM

The next lines start with the values.

Row | EC50 | SMILES
22 | 1000 to 10000 nM | O=C(O)C1CCN(C2CCc3cc(C4CN(c5c(F)cccc5F)C4)ccc32)CC1 (single isomer, unassigned) [Compound 2b, 1-(5-(1-(2,6-difluorophenyl)azetidin-3-yl)-2,3-dihydro-1H-inden-1-yl)-piperidine-4-carboxylic acid]
23 | 10 to 100 nM | Cc1cc(C2CN(c3c(Cl)cccc3Cl)C2)ccc1C(C)N1CCC(C(=O)O)CC1 (single isomer, unassigned) [Compound 16a, 1-(1-(4-(1-(2,6-dichlorophenyl)azetidin-3-yl)-2-methylphenyl)ethyl)piperidine-4-carboxylic acid]
24 | 10 to 100 nM | O=C(O)C1CCN(C2CCc3cc(C4CN(c5ccccc5F)C4)ccc32)CC1 (single isomer, unassigned) [Compound 4a, 1-(5-(1-(2-fluorophenyl)azetidin-3-yl)-2,3-dihydro-1H-inden-1-yl)piperidine-4-carboxylic acid]
25 | 10 to 100 nM | O=C(O)C1CCN(C2CCc3cc(C4CN(c5c(F)cccc5F)C4)ccc32)CC1 (single isomer, unassigned) [Compound 2a, 1-(5-(1-(2,6-difluorophenyl)azetidin-3-yl)-2,3-dihydro-1H-inden-1-yl)-piperidine-4-carboxylic acid]
26 | 1000 to 10000 nM | O=C(O)C1CCN(C2CCc3cc(C4CN(c5ccccc5F)C4)ccc32)CC1 (single isomer, unassigned) [Compound 4b, 1-(5-(1-(2-fluorophenyl)azetidin-3-yl)-2,3-dihydro-1H-inden-1-yl)piperidine-4-carboxylic acid]
27 | 100 to 1000 nM | O=C(O)C1CCN(C2CCc3cc(C4CN(c5cccc(F)c5)C4)ccc32)CC1 (single isomer, unassigned) [Compound 3a, 1-(5-(1-(3-fluorophenyl)azetidin-3-yl)-2,3-dihydro-1H-inden-1-yl)piperidine-4-carboxylic acid]
28 | 1000 to 10000 nM | O=C(O)C1CCN(C2CCc3cc(N4CC(c5ccccc5F)C4)ccc32)CC1 (single isomer, unassigned) [Compound 10b, 1-(5-(3-(2-fluorophenyl)azetidin-1-yl)-2,3-dihydro-1H-inden-1-yl)piperidine-4-carboxylic acid]
